In the test the target is T1, NAD(+) hydrolase SARM1 [28-724] (UniProt Q6SZW1).
T1 construct: 28-724
T1 sequence (Q6SZW1 whole entry): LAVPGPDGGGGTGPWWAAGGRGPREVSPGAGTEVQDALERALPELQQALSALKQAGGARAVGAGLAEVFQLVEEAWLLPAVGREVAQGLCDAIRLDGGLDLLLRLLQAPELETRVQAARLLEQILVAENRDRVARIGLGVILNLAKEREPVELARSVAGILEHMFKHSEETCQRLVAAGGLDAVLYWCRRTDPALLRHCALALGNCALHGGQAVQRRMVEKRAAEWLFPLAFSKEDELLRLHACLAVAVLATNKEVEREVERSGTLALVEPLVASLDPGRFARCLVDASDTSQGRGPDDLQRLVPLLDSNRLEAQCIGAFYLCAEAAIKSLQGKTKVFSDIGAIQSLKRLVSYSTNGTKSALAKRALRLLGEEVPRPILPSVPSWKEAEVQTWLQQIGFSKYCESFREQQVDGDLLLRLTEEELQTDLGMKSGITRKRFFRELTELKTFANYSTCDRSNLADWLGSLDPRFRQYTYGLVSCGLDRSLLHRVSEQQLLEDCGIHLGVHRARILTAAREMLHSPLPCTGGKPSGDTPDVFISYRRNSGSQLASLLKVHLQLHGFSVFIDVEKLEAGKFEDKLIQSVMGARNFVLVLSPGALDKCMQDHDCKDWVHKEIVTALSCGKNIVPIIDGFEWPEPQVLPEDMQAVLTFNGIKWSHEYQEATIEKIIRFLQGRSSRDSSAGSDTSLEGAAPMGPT
The experiment in a line: SARM1 Inhibitory Activity. The protocol:
Assay reagents were prepared in 25mM HEPES pH 7.2, 50mM NaCl, 1mM EDTA and 0.0025% Tween20. […] The peak area of NAD and linear ADPR were measured by a RapidFire High Throughput Mass Spectrometry System (Agilent Technologies, Santa Clara, CA) using an API5000 triple quadrupole mass spectrometer (AB Sciex Framingham, MA). The ratio of linear ADPR to NAD peak area was then plotted against compound concentration to obtain an IC50 as fitted via non-linear regression.

On to `O=C(c1cc(-c2ccncc2)n[nH]1)N1CCC(c2ccc(Cl)cc2)C1` (configuration not stated) [WO2025045746, Example 1], for which the midpoint of inhibition, the IC50, lay at 387 nM.
For the compound `O=C(c1cc(-c2ccncc2)n[nH]1)N1CCC(c2ccccc2)C1` (configuration not stated) [WO2025045746, Example 2], the IC50 (in general, the concentration that inhibits the measured activity by half) amounted to 4510 nM.
The figure for `O=C(c1cc(-c2ccncc2)n[nH]1)N1CCC2(CCc3cc(Br)ccc32)C1` (configuration not stated) [WO2025045746, Example 3] is 3190 nM; for `O=C(c1cc(-c2ccnnc2)n[nH]1)N1CCC(c2ccc(Cl)cc2)C1` (configuration not stated) [WO2025045746, Example 4] it is 191 nM.
For `Cc1c(-c2ccnnc2)n[nH]c1C(=O)N1CCC(c2ccc(Cl)cc2)C1` (configuration not stated) [WO2025045746, Example 5] the value was 427 nM; for `O=C(c1cc(-c2ccncc2)n[nH]1)N1CCC(c2ccccc2Cl)C1` (configuration not stated) [WO2025045746, Example 6], 3040 nM; for `O=C(c1cc(-c2ccncc2)n[nH]1)N1CCC(c2cccc(Cl)c2)C1` (configuration not stated) [WO2025045746, Example 7], 1280 nM.
The figure for `O=C(c1cc(-c2ccncc2)n[nH]1)N1CCC(c2ccc(F)cc2Cl)C1` (configuration not stated) [WO2025045746, Example 8] is 458 nM; for `O=C(c1cc(-c2ccncc2)n[nH]1)N1CCC(c2ccc(Cl)s2)C1` (configuration not stated) [WO2025045746, Example 9] it is 194 nM.
With `O=C(c1cc(-c2ccnnc2)n[nH]1)N1CCC(c2ccc(Cl)s2)C1` (configuration not stated) [WO2025045746, Example 10], the midpoint of inhibition, the IC50, lay at 98 nM. Compared with the last compound, the IC50 is about 2-fold lower.
For `CC1(C)CC(c2ccccc2)CN1C(=O)c1cc(-c2ccncc2)n[nH]1` (configuration not stated) [WO2025045746, Example 11] the value was 7390 nM; for `O=C(c1cc(-c2ccncc2)n[nH]1)N1C[C@@H](O)[C@H](c2ccc(Cl)cc2)C1` [WO2025045746, Example 13], 624 nM; for `Cc1ccc(C2CCN(C(=O)c3cc(-c4ccnnc4)n[nH]3)C2)cc1` (configuration not stated) [WO2025045746, Example 14], 2910 nM.
For `O=C(c1cc(-c2ccnnc2)n[nH]1)N1CCC(F)(c2cc(F)cc(F)c2)C1` (configuration not stated) [WO2025045746, Example 15] the value was 3740 nM; for `N#Cc1ccc(C2CCN(C(=O)c3cc(-c4ccnnc4)n[nH]3)C2)cc1` (configuration not stated) [WO2025045746, Example 16], 2170 nM.
For `O=C(c1cc(-c2ccnnc2)n[nH]1)N1CCC(c2ccc(F)c(F)c2)C1` (configuration not stated) [WO2025045746, Example 17] the value was 105 nM; for `O=C(c1cc(-c2ccnnc2)n[nH]1)N1CCC(c2cccc(OC(F)(F)F)c2)C1` (configuration not stated) [WO2025045746, Example 18], 6180 nM.
In the case of `O=C(c1cc(-c2ccnnc2)n[nH]1)N1CCC(c2ccc(Cl)nc2)C1` (configuration not stated) [WO2025045746, Example 19], half-maximal inhibition (IC50) was put at 469 nM.
Compound `O=C(c1cc(-c2ccnnc2)n[nH]1)N1CCC(c2ccc(Cl)cn2)C1` (configuration not stated) [WO2025045746, Example 20] gave an IC50 of 9660 nM.
For `O=C(c1cc(-c2ccnnc2)n[nH]1)N1C[C@@H](O)[C@H](c2ccc(Cl)cc2)C1` [WO2025045746, Example 21] the value was 351 nM; for `O=C(c1cc(-c2ccnnc2)n[nH]1)N1C[C@H](O)[C@H](c2ccc(Cl)cc2)C1` [WO2025045746, Example 22], 9220 nM.
Take `O=C(c1cc(-c2ccnnc2)n[nH]1)N1CCC(F)(c2ccc(F)c(F)c2)C1` (configuration not stated) [WO2025045746, Example 23]: the IC50 stood at 2270 nM.
For `CC1CC(c2ccccc2)C(C)N1C(=O)c1cc(-c2ccnnc2)n[nH]1` (configuration not stated) [WO2025045746, Example 24] the value was 9480 nM; for `C[C@@H]1C[C@H](c2ccc(F)cc2)CN1C(=O)c1cc(-c2ccnnc2)n[nH]1` [WO2025045746, Example 25], 9540 nM; for `O=C(c1cc(-c2ccncc2)n[nH]1)N1CC[C@H](c2ccc(Cl)cc2)C1` [WO2025045746, Example 26], 194 nM.
`O=C(c1cc(-c2ccncc2)n[nH]1)N1CC[C@@H](c2ccc(Cl)cc2)C1` [WO2025045746, Example 27] returned an IC50 of 625 nM.
The figure for `O=C(c1cc(-c2ccncc2)n[nH]1)N1CC[C@H](c2ccc(Cl)nc2)C1` [WO2025045746, Example 28] is 682 nM.
The figure for `O=C(c1cc(-c2ccncc2)n[nH]1)N1CC[C@@H](c2ccc(Cl)nc2)C1` [WO2025045746, Example 29] is 2830 nM; for `O=C(c1cc(-c2ccnnc2)n[nH]1)N1C[C@@H](O)[C@H](c2ccc(Cl)cc2)C1` [WO2025045746, Example 30] it is 172 nM.
The figure for `O=C(c1cc(-c2ccnnc2)n[nH]1)N1C[C@H](c2ccc(Cl)cc2)[C@@H](O)C1` [WO2025045746, Example 31] is 761 nM.
In turn, `O=C(c1cc(-c2ccncc2)n[nH]1)N1CC(c2ccc(Cl)cc2)C2CCCCC21` (configuration not stated) [WO2025045746, Example 32] gave an IC50 of 521 nM.
The figure for `COc1cc(C2CCN(C(=O)c3cc(-c4ccnnc4)n[nH]3)C2)cc(F)c1F` (configuration not stated) [WO2025045746, Example 33] is 2120 nM; for `O=C(c1cc(-c2ccnnc2)n[nH]1)N1C[C@H](O)[C@H](c2ccc(Cl)cc2)C1` [WO2025045746, Example 34] it is 5920 nM; for `COc1c(-c2ccnnc2)n[nH]c1C(=O)N1CCC(c2ccc(Cl)cc2)C1` (configuration not stated) [WO2025045746, Example 35] it is 698 nM.
For `O=C(c1cc(-c2ccncc2F)n[nH]1)N1CCC(c2ccc(Cl)cc2)C1` (configuration not stated) [WO2025045746, Example 36] the value was 1220 nM.
Regarding `O=C(c1cc(-c2ccnnc2)n[nH]1)N1CCC(c2cnc(Cl)s2)C1` (configuration not stated) [WO2025045746, Example 37], the IC50 is 1780 nM.
Compound `O=C(c1cc(-c2ccnnc2)n[nH]1)N1CCC(c2ncc(Cl)s2)C1` (configuration not stated) [WO2025045746, Example 38] had an IC50 of 8300 nM.
The figure for `O=C(c1cc(-c2ccnnc2)n[nH]1)N1CCC(c2ccc(Cl)c(F)c2)C1` (configuration not stated) [WO2025045746, Example 39] is 73 nM.
As for `N#Cc1ccc(C2CCN(C(=O)c3cc(-c4ccnnc4)n[nH]3)C2)s1` (configuration not stated) [WO2025045746, Example 40], 746 nM corresponded to half-maximal inhibition (IC50).
The figure for `O=C(c1cc(-c2ccnnc2)n[nH]1)N1CC[C@@H](c2ccc(F)c(F)c2)C1` [WO2025045746, Example 41] is 57 nM; for `O=C(c1cc(-c2ccnnc2)n[nH]1)N1CC[C@H](c2ccc(F)c(F)c2)C1` [WO2025045746, Example 42] it is 183 nM.
The figure for `CC1CC(c2ccc(Cl)cc2)CN1C(=O)c1cc(-c2ccnnc2)n[nH]1` (configuration not stated) [WO2025045746, Example 43] is 8690 nM; for `O=C(c1cc(-c2ccnnc2)n[nH]1)N1CCC(c2ccc(Br)s2)C1` (configuration not stated) [WO2025045746, Example 44] it is 114 nM.
For `Cc1ccc(C2CCN(C(=O)c3cc(-c4ccnnc4)n[nH]3)C2)s1` (configuration not stated) [WO2025045746, Example 45] the value was 1540 nM; for `CC1CN(C(=O)c2cc(-c3ccnnc3)n[nH]2)CC1c1ccc(Br)cc1` (configuration not stated) [WO2025045746, Example 46], 188 nM.
Turning to `O=C(c1[nH]nc(-c2ccnnc2)c1Cl)N1CCC(c2ccc(F)c(F)c2)C1` (configuration not stated) [WO2025045746, Example 47], the IC50 was determined as 142 nM. This IC50 and that of the compound before are within 1.5-fold of each other.
For `Cc1csc(C2CCN(C(=O)c3cc(-c4ccnnc4)n[nH]3)C2)c1` (configuration not stated) [WO2025045746, Example 48] the value was 7410 nM; for `O=C(c1[nH]nc(-c2ccnnc2)c1Cl)N1CC[C@@H](c2ccc(F)c(F)c2)C1` [WO2025045746, Example 49], 379 nM.
For `O=C(c1[nH]nc(-c2ccnnc2)c1Cl)N1CC[C@H](c2ccc(F)c(F)c2)C1` [WO2025045746, Example 50] the value was 68 nM.
Compound `O=C(c1cc(-c2ccnnc2)n[nH]1)N1CCC(c2ccc(Br)cc2)C1` (configuration not stated) [WO2025045746, Example 51] came in with an IC50 of 461 nM.
The figure for `C[C@@H]1CN(C(=O)c2cc(-c3ccnnc3)n[nH]2)C[C@H]1c1ccc(Br)cc1` [WO2025045746, Example 52] is 1360 nM; for `C[C@H]1CN(C(=O)c2cc(-c3ccnnc3)n[nH]2)C[C@@H]1c1ccc(Br)cc1` [WO2025045746, Example 53] it is 84 nM; for `O=C(c1cc(-c2ccnnc2)n[nH]1)N1CCC(c2cc3ccccc3s2)C1` (configuration not stated) [WO2025045746, Example 54] it is 8130 nM.
The figure for `Cc1sc(C2CCN(C(=O)c3cc(-c4ccnnc4)n[nH]3)C2)cc1Br` (configuration not stated) [WO2025045746, Example 55] is 2170 nM.
`Cc1cnccc1-c1cc(C(=O)N2CC[C@@H](c3ccc(Cl)cc3)C2)[nH]n1` [WO2025045746, Example 56]: the IC50 worked out at 500 nM. Compared with the last compound, the IC50 is about 4.3-fold lower.
The figure for `Cc1cnccc1-c1cc(C(=O)N2CC[C@H](c3ccc(Cl)cc3)C2)[nH]n1` [WO2025045746, Example 57] is 2210 nM.
For `O=C(c1[nH]nc(-c2ccnnc2)c1Br)N1CC[C@H](c2ccc(Cl)cc2)C1` [WO2025045746, Example 58] the value was 340 nM.
